Measurements: patent US20240117005A1, “NOVEL BICYCLIC PEPTIDES” (THE COUNCIL OF THE QUEENSLAND INSTITUTE OF MEDICAL RESEARCH, priority 2021, published 2024)
Starred links: 1 amine or outer side, 2 acyl side, 3 side chain; linkers in the order of their positions; H or OH if unused. Positions of bridges follow the written chain, without caps; N, C: chain ends. No end group written: not given here. *: point of attachment. TBMB = c1c(C[*:1])cc(C[*:3])cc1C[*:2]; Myristyl = CCCCCCCCCCCCCC*

What was measured:
[1] = system: metastatic initiating cells (MICs); experiment: Flow cytometry for alanine walk (MIC inhibition); format: cell-based; settings: alanine walk peptide inhibitors, FACS MIC signature
Protocol: FACS (Fluorescence-activated cell sorting) was performed on single-cell suspensions treated with a suite of alanine walk peptide inhibitors. Cells were stained an array of antibodies to target the metastatic initiating cell (MIC) signature including CD44, CD24, SNAIL, ABCB5, CSV and Hoechst dye to monitor cell viability. The FACS gating strategy used is adopted and modified from our signature for metastatic initiating cells (MICs), which sorted cells based on the MIC, therapeutic resistant phenotype, shown to be associated with metastatic and aggressive cancer cells. A flow cytometry gating strategy was always included in the analysis to exclude dead cells ([…]). Flow cytometry acquisition was performed on single cell suspensions using BLSR II. Analysis was performed using FlowJo software.

[2] = system: MDA-MB-231 cells; experiment: WST-1 cell proliferation assay, MDA-MB-231; format: cell-based, human; settings: MDA-MB-231, WST-1, 72 hours
Protocol: (§1) MDA-MB-231 cells were seeded at 4×10^3 cells/well into a 96-well flat bottom tissue culture plate in a final volume of 100 ul and left to adhere for 24 hours at 37° C. and 5% CO2. Cells were then treated with inhibitors for 72 hours at a final concentration of 200, 100, 50, 25, 12.5 or 6.25 μM. Following inhibition, media was removed and replaced with 100 μL/well of WST-1 cell proliferation reagent (Sigma-Aldrich, Cat# 11644807001) at 1:10 final dilution. Absorbance was recorded at 450 nm at 1, 2, 3, and 4 hour incubation periods using a microplate spectrophotometer (with 30 sec mix time). Data represent a single independent experiment performed in triplicate, results are graphed as mean +/− standard error (SE).
(§2) (A) CT26, 4T1 or MDA-MB-231 Cells were treated with inhibitors for 72 hours. Following inhibition, media was removed and replaced with WST-1 cell proliferation reagent. Absorbance was recorded at 450 nm after 1 hour. Data represent a single independent experiment performed in triplicate. Results are graphed as mean +/− standard error (SE). B) MDA-MB-231 or CT26 cancer cells were treated with vehicle control, DL-2-Batch 1 (original stock), DL-2-Batch 2 (current stock), DL-2-TBAB or linear PDL1. Cells were permeabilised and were probed with the DUOLINK ligation assay. Cover slips were mounted on glass microscope slides with ProLong nucblue glass Antifade reagent (Life Technologies). PDL1Ac and IMPα1 DUOLINK Digital images were analysed using ImageJ software (ImageJ, NIH, Bethesda, MD, USA) and graphs represent the mean DOT Fluorescent Intensity in the nucleus or the cytoplasm compartments with significant differences calculated as per one-way ANOVA comparison. (C) MDA-MB-231 or CT26 cancer cells were treated with vehicle control, DL-2-Batch 1 (Original stock), DL-2-Batch 2 (current stock), DL-2-TBAB or linear PDL1. Cells were permeabilised and were probed with the DUOLINK ligation assay. Cover slips were mounted on glass microscope slides with ProLong nucblue glass Antifade reagent (Life Technologies). PDL1-unmodified and IMPα1 DUOLINK digital images were analysed using ImageJ software (ImageJ, NIH, Bethesda, MD, USA) and graphs represent the mean DOT fluorescent intensity in the nucleus or the cytoplasm compartments with significant differences calculated as per one-way ANOVA comparison.
(§3) 4T1, CT26 or MDA-MB-231 cancer cell lines were treated with DL-2 or DL-2-D bicyclic inhibitors for 72 hours. Following inhibition, media was removed and replaced with WST-1 cell proliferation reagent. Absorbance was recorded at 450 nm after 1 hour. Data represent a single independent experiment performed in triplicate; results are graphed as mean +/− standard error (SE).
Cells weretreated with inhibitors for 48 hours. Following inhibition, media was removed and replaced with WST-1 cell proliferation reagent. Absorbance was recorded at 450 nm after 1 hour.

[3] = system: MDA-MB-231-Br cells; experiment: WST-1 cell proliferation assay, MDA-MB-231-Br; format: cell-based, human; settings: WST-1
[4] = system: cancer cell proliferation; experiment: Cancer cell proliferation (Table 12 summary); format: cell-based
Protocol: as §1, §3

[5] = system: CSC; experiment: CSC inhibition (Table 10 summary); format: cell-based; settings: linear peptide derivatives; change stated relative to prototype PDL1-L1
[6] = system: CT26 cells; experiment: WST-1 cell proliferation assay, CT26; format: cell-based, mouse; settings: CT26, WST-1, 72 hours
Protocol: as §2, §3

[7] = system: 4T1 cells; experiment: WST-1 cell proliferation assay, 4T1; format: cell-based; settings: 4T1, WST-1, 72 hours
Protocol: as §2, §3

[8] = Rat plasma stability assay; format: in vitro ADME; settings: 37° C., up to 24 hours
Protocol: The stability assay was performed as per CRO's protocol (Creative Peptides). In brief, peptide stability assays were carried out using a rat plasma model with the following steps: • 3.6 mL of human plasma and rat plasma were thawed at room temperature and centrifuged at 3000 rpm for 15 min. Remove the precipitate. • Prepare 20 mL termination solution ([…]) and precool at 4° C. • Prepare the following solution:
• Incubate the tube at 37° C. Take out 200 μL plasma sample at desired time points up to 24 hours respectively (e.g., at 0, 15, 30, 60, 120 mins, etc). Add 400 μL pre-cooled stop solution, centrifuge at 3000 rpm, 4° C. for 15 min, and carefully aspirate the supernatant. • The supernatant samples were filtered with a 0.22 μm filter membrane, and then analysed by LC-MS in order to determine the percentage of the test compound remaining.
The stability assay was performed using the same protocol as described above in Example 7.

[9] = system: 4T1 TNBC metastatic cancer cells; experiment: 4T1 model of metastatic breast cancer in mice; format: in vivo, mouse
Protocol: 4T1 Gold standard immunotherapy resistant mouse model mice obtained from the ARC, Perth and mice were inoculated with 4T1 TNBC metastatic cancer cells. DL-2 is supplied lyophilised in glass vials and was reconstituted using sodium chloride injection BP (0.9% saline) to make a stock solution of 10 mg/mL using a needle/syringe, DL-2 was mixed by inversion. Animals were then injected by intraperitoneal injection at 10, 20 or 30 mg/kg daily and rested over the weekend. Mice were monitored over time for body weight and tumour volume.
4T1 Gold standard immunotherapy resistant mouse model mice obtained from the ARC, Perth and mice were inoculated with 4T1 TNBC metastatic cancer cells. DL-2 or DL-2-D is supplied lyophilised in glass vials was reconstituted using sodium chloride injection BP (0.9% saline) to make a stock solution of 10 mg/mL using a needle/syringe, DL-2 was mixed by inversion. Animals were then injected by intraperitoneal injection and mice were monitored over time for body weight and tumour volume for DL-2 at 20 mg/kg every second day with resting over the weekend in conjunction with αPD1 or isotype control (10 mg/kg).
DL-2-D was mixed by inversion. Animals were then injected by intraperitoneal injection and mice were monitored over time for body weight and tumour volume for DL-2-D at a concentration of 20 mg/kg every two days (identical regime to αPD1) in conjunction with αPD1 or isotype control (10 mg/kg).

[10] = system: CD8+ TIM3+ T cells; experiment: FACS of CD8+ TIM3+ T cells from 4T1 tumour mouse model; format: in vivo; settings: 4T1 TNBC tumour mouse model
From the text: FIG. 32 provides graphical representations showing a comparison between DL-2 and DL-2-D. (A) As per FIGS. 24, and 25, above. (B) Fixed cells were washed with PBS and resuspended in PBS containing 1% BSA prior to antibody staining. Primary antibodies targeting CD8, TIM3 and PD1 antibodies were used. Appropriate antibody controls were used for all flow cytometry stain and acquisition. All samples were acquired on an LSR Fortessa cytometer (BD Biosciences, Franklin Lakes, NJ), and data were analyzed using FlowJo v10 software

[11] = system: PDL1-PTM1, CSV and ALDH1A1 in 4T1 cells; experiment: Imaging of PDL1-PTM1, CSV and ALDH1A1 after cyclic PDL1 peptide; format: cell-based; settings: 4T1 breast cancer cell line (Table 11 comment)
Protocol: Breast cancer cell line, 4T1, was treated with vehicle control or cyclic PDL1 peptide (cyclic PDL1) at a concentration of 50 μM. Cells were permeabilised and were probed with primary antibodies against PDL1-PTM1, CSV and ALDH1A1. Cover slips were mounted on glass microscope slides with ProLong nucblue glass Antifade reagent (Life Technologies). PDL1-PTM1, CSV and ALDH1A1 digital images were analysed using ImageJ software (ImageJ, NIH, Bethesda, MD, USA). Graphs represent the mean fluorescent intensity in the nucleus or the cytoplasm compartments with significant differences calculated as per Mann-Whitney analysis or the ratio of nuclear to cytoplasmic staining for PDL1-PTM1 which was calculated using the formula F(n−b)/(c−b) wherein n=nuclear staining, b=background, c=cytoplasmic. A ratio of 1 or high indicates nuclear bias, under 1 indicates cytoplasmic bias.

[12] = DL-2-D (20 mg/kg) and αPD1 (10 mg/kg) combination therapy, day 20

TFIFRLRAGRMMDVKK
% Inhibition (number of metastatic initiating cells) [1]: 0%

AFIFRLRKGRMMDVKK
% Inhibition (number of metastatic initiating cells) [1]: 80.13%

TFIFRLRKGRMMDAKK
% Inhibition (number of metastatic initiating cells) [1]: 81.9%

TFIFRARKGRMMDVKK
% Inhibition (number of metastatic initiating cells) [1]: 35.6%

TFIFRLRKGRMMAVKK
% Inhibition (number of metastatic initiating cells) [1]: 100%

LTFICFRLRKGRMCMDVCGKK (Myristyl-LTFICFRLRKGRMCMDVCGKK; linker 5-14-18 via TBMB) [DL-1, bicyclic peptide, Myristyl- N-terminus, TBMB backbone]
inhibition of proliferation [2]: able to inhibit proliferation
inhibition of proliferation [3]: able to inhibit proliferation
fold less potent than DL-2 at inhibiting cancer cell proliferation [4]: DL-1 was 3-fold less

TFIFRLRKGAMMDVKK
% Inhibition (number of metastatic initiating cells) [1]: 62.69%

TFIFRLAKGRMMDVKK
% Inhibition (number of metastatic initiating cells) [1]: 43.98%

acltfifcrlrkGrcmmdvkk [DL2-D-Linear]
Potency (CSC inhibition) [5]: No change

TFIFRLRKGRMMDVAK
% Inhibition (number of metastatic initiating cells) [1]: 48.7%

kkvdmmcrGkrlrcfiftlca [DL2-D Ret Linear]
Potency (CSC inhibition) [5]: No change

TAIFRLRKGRMMDVKK
% Inhibition (number of metastatic initiating cells) [1]: 74.35%

acltfifcrirckGrcmmdvkk [DL-2-D]
inhibition of proliferation [2]: significantly inhibit the proliferation
inhibition of proliferation [6]: significantly inhibit the proliferation
inhibition of proliferation [7]: significantly inhibit the proliferation
stability in rat plasma (percentage of test compound remaining) [8]: significantly more stable
lung metastasis [9, 12]: reduces
primary tumour burden [9, 12]: reduces
lung, liver or spleen weights ([9]; DL-2-D alone): does not alter
body weight ([9]; DL-2-D and anti-PD1 combination therapy): No change
tumour volume ([9]; DL-2-D as a monotherapy agent): significantly inhibits
lung, liver or spleen weights ([9]; DL-2-D in combination with anti-PD1): does not alter
body weight ([9]; DL-2-D monotherapy): No change
abrogating the TIM3+ immunotherapy-resistant signature in CD8+ T cells [10]: more potent than DL-2

LTFIFRLRKGRMMDVKKAGGA (Myristyl-LTFIFRLRKGRMMDVKKAGGA; not fully specified) [PDL1-L1 C2, Myristyl- cyclic peptide derivative, 4 linker amino acids]
inhibition of mesenchymal cancer markers and nuclear PDL1-PTM1 [11]: Failed to inhibit

TFIFRLRKGRAMDVKK
% Inhibition (number of metastatic initiating cells) [1]: 74.35%

TFIFRLRKGRMMDVKA
% Inhibition (number of metastatic initiating cells) [1]: 58.03%

ACLTFIFCRLRKGRCMMDVKK [DL2-Linear, Myristyl- DL2 linear peptide]
Potency (CSC inhibition) [5]: No change

TFIARLRKGRMMDVKK
% Inhibition (number of metastatic initiating cells) [1]: 4.4%

TFIFRLRKGRMADVKK
% Inhibition (number of metastatic initiating cells) [1]: 100%

TFAFRLRKGRMMDVKK
% Inhibition (number of metastatic initiating cells) [1]: 30.2%

TFIFRLRKARMMDVKK
% Inhibition (number of metastatic initiating cells) [1]: 41.38%

ACLTFIFRLRCKGRMCMDVGKK (Myristyl-ACLTFIFRLRCKGRMCMDVGKK; linker 2-11-16 via TBMB) [DL-3, bicyclic peptide, Myristyl- N-terminus, TBMB backbone]
inhibition of cancer cell proliferation ([4]; Table 12 comment): DL-3 displayed no

TFIFALRKGRMMDVKK
% Inhibition (number of metastatic initiating cells) [1]: 71.67%
